# In patent US8445492B2, “Method for inhibiting growth of cancer cells and cell telomere and diseases of cell proliferation by using heteroannelated anthraquinone derivative compounds” (National Defense Medical Center, priority 2008, dated 2013):
# Where two headings read alike, the source gives them in different places.
# What was measured:
# [1] = test system: HL-60(TB); settings: for TGI: HL-60(TB)
# [2] = test system: NCI-H522; assay: cells; settings: Homo sapiens; for GI50: NCI-H522
# [3] = test system: A549/ATCC; assay: cells; settings: Homo sapiens; for GI50: A549
# [4] = test system: SK-MEL-2; assay: in vitro test at 1.0×10^−5 M, Skin cancer cell; type: cell-based; settings: 1.0×10^−5 molal concentration (M)
# [5] = test system: T-47D; assay: in vitro test at 1.0×10^−5 M, Breast cancer cell; type: cell-based; settings: 1.0×10^−5 molal concentration (M)
# [6] = test system: HOP-92; settings: for TGI: HOP-92
# [7] = test system: HCT-15; assay: NCI DTP in-vitro dose response, Colon Cancer; type: cell-based
# [8] = test system: SF-295; assay: NCI DTP in-vitro dose response, CNS Cancer; type: cell-based
# [9] = test system: MALME-3M; assay: NCI DTP in-vitro dose response, Melanoma; type: cell-based
# [10] = test system: HS 578T; assay: NCI DTP in-vitro dose response, Breast Cancer; type: cell-based
# [11] = test system: KM12; assay: NCI DTP in-vitro dose response, Colon Cancer; type: cell-based
# [12] = test system: MDA-MB-468; assay: NCI DTP in-vitro dose response, Breast Cancer; type: cell-based
# [13] = test system: SNB-19; assay: NCI DTP in-vitro dose response, CNS Cancer; type: cell-based
# [14] = test system: SF-539; assay: NCI DTP in-vitro dose response, CNS Cancer; type: cell-based
# [15] = test system: HT29; assay: NCI DTP in-vitro dose response, Colon Cancer; type: cell-based
# [16] = test system: SN12C; assay: NCI DTP in-vitro dose response, Renal Cancer; type: cell-based
# [17] = test system: OVCAR-5; assay: NCI DTP in-vitro dose response, Ovarian Cancer; type: cell-based
# [18] = test system: ACHN; assay: NCI DTP in-vitro dose response, Renal Cancer; type: cell-based
# [19] = test system: HCC-2998; assay: NCI DTP in-vitro dose response, Colon Cancer; type: cell-based
# [20] = test system: MDA-MB-435; assay: NCI DTP in-vitro dose response, Breast Cancer; type: cell-based
compound,measurement,setting,value
"CCc1nc2ccc3c(c2[nH]1)C(=O)c1ccccc1C3=O [No. 4, 2-Ethyl-1(3)H-anthra[1,2-d]imidazole-6,11-dione]",TGI,[1],>1.00E−4
same,Percent Growth,[1]; Log10 Concentration −4.0,19%
same,Percent Growth,[1]; Log10 Concentration −5.0,43%
same,Percent Growth,[1]; Log10 Concentration −6.0,101%
same,Percent Growth,[1]; Log10 Concentration −7.0,100%
same,Percent Growth,[1]; Log10 Concentration −8.0,100%
same,GI50,[2],15.4 µM
same,GI50,[3],17.1 µM
same,inhibition effect on cancer cell line (Table 2 value),[4],40.07
same,inhibition effect on cancer cell line (Table 2 value),[5],63.05
same,TGI,[6],>1.00E−4
same,Percent Growth,[6]; Log10 Concentration −4.0,23%
same,Percent Growth,[6]; Log10 Concentration −5.0,48%
same,Percent Growth,[6]; Log10 Concentration −6.0,64%
same,Percent Growth,[6]; Log10 Concentration −7.0,80%
same,Percent Growth,[6]; Log10 Concentration −8.0,93%
"O=C1c2ccccc2C(=O)c2c1ccc1nsnc21 [No. 22, Anthra[2,1-c][1,2,5]thiadiazole-6,11-dione]",TGI,[7]; HCT-15,7.80E−6
same,GI50,"[7]; Homo sapiens, HCT-15",2.49 µM
same,CC50,"[7]; Homo sapiens, HCT-15, read-out: LC50",90.6 µM
same,Percent Growth,[7]; Log10 Concentration −4.0,−52%
same,Percent Growth,[7]; Log10 Concentration −5.0,−11%
same,Percent Growth,[7]; Log10 Concentration −6.0,90%
same,Percent Growth,[7]; Log10 Concentration −7.0,104%
same,Percent Growth,[7]; Log10 Concentration −8.0,110%
same,GI50,"[8]; Homo sapiens, SF-295",3.08 µM
same,CC50,"[8]; Homo sapiens, SF-295, read-out: LC50",93.9 µM
same,Percent Growth,[8]; Log10 Concentration −4.0,−51%
same,Percent Growth,[8]; Log10 Concentration −5.0,−3%
same,Percent Growth,[8]; Log10 Concentration −6.0,100%
same,Percent Growth,[8]; Log10 Concentration −7.0,105%
same,Percent Growth,[8]; Log10 Concentration −8.0,102%
same,TGI,[8]; SF-295,9.40E−6
same,TGI,[1],5.13E−6
same,Percent Growth,[1]; Log10 Concentration −4.0,−43%
same,Percent Growth,[1]; Log10 Concentration −5.0,−38%
same,Percent Growth,[1]; Log10 Concentration −6.0,93%
same,Percent Growth,[1]; Log10 Concentration −7.0,102%
same,Percent Growth,[1]; Log10 Concentration −8.0,103%
same,GI50,"[9]; Homo sapiens, Malme-3M",2.37 µM
same,CC50,"[9]; Homo sapiens, Malme-3M, read-out: LC50",9.55 µM
same,Percent Growth,[9]; Log10 Concentration −4.0,−72%
same,Percent Growth,[9]; Log10 Concentration −5.0,−53%
same,Percent Growth,[9]; Log10 Concentration −6.0,112%
same,Percent Growth,[9]; Log10 Concentration −7.0,115%
same,Percent Growth,[9]; Log10 Concentration −8.0,102%
same,TGI,[9]; MALME-3M,4.76E−6
same,TGI,[10]; HS 578T,>1.00E−4
same,GI50,"[10]; Homo sapiens, Hs-578T",5.03 µM
same,CC50,"[10]; Homo sapiens, Hs-578T, read-out: LC50",> 100 µM
same,Percent Growth,[10]; Log10 Concentration −4.0,21%
same,Percent Growth,[10]; Log10 Concentration −5.0,29%
same,Percent Growth,[10]; Log10 Concentration −6.0,100%
same,Percent Growth,[10]; Log10 Concentration −7.0,114%
same,Percent Growth,[10]; Log10 Concentration −8.0,109%
same,GI50,[2],3.01 µM
same,CC50,"[2]; NCI-H522, read-out: LC50",> 100 µM
same,GI50,"[11]; Homo sapiens, KM12",11.4 µM
same,CC50,"[11]; Homo sapiens, KM12, read-out: LC50",94.8 µM
same,TGI,[11]; KM12,3.28E−5
same,Percent Growth,[11]; Log10 Concentration −4.0,−53%
same,Percent Growth,[11]; Log10 Concentration −5.0,56%
same,Percent Growth,[11]; Log10 Concentration −6.0,103%
same,Percent Growth,[11]; Log10 Concentration −7.0,108%
same,Percent Growth,[11]; Log10 Concentration −8.0,107%
same,GI50,"[12]; Homo sapiens, MDA-MB-468",1.83 µM
same,CC50,"[12]; Homo sapiens, MDA-MB-468, read-out: LC50",5.72 µM
same,Percent Growth,[12]; Log10 Concentration −4.0,−99%
same,Percent Growth,[12]; Log10 Concentration −5.0,−99%
same,Percent Growth,[12]; Log10 Concentration −6.0,103%
same,Percent Growth,[12]; Log10 Concentration −7.0,101%
same,Percent Growth,[12]; Log10 Concentration −8.0,97%
same,TGI,[12]; MDA-MB-468,3.24E−6
same,GI50,"[13]; Homo sapiens, SNB-19",1.86 µM
same,CC50,"[13]; Homo sapiens, SNB-19, read-out: LC50",6.43 µM
same,Percent Growth,[13]; Log10 Concentration −4.0,−98%
same,Percent Growth,[13]; Log10 Concentration −5.0,−86%
same,Percent Growth,[13]; Log10 Concentration −6.0,100%
same,Percent Growth,[13]; Log10 Concentration −7.0,101%
same,Percent Growth,[13]; Log10 Concentration −8.0,102%
same,TGI,[13]; SNB-19,3.46E−6
same,GI50,"[14]; Homo sapiens, SF-539",1.52 µM
same,CC50,"[14]; Homo sapiens, SF-539, read-out: LC50",5.38 µM
same,Percent Growth,[14]; Log10 Concentration −4.0,−98%
same,Percent Growth,[14]; Log10 Concentration −5.0,−99%
same,Percent Growth,[14]; Log10 Concentration −6.0,83%
same,Percent Growth,[14]; Log10 Concentration −7.0,84%
same,Percent Growth,[14]; Log10 Concentration −8.0,90%
same,TGI,[14]; SF-539,2.86E−6
same,GI50,[3],2.25 µM
same,CC50,"[3]; A549, read-out: LC50",> 100 µM
same,TGI,[15]; HT29,7.36E−6
same,GI50,"[15]; Homo sapiens, HT-29",2.75 µM
same,CC50,"[15]; Homo sapiens, HT-29, read-out: LC50",81 µM
same,Percent Growth,[15]; Log10 Concentration −4.0,−53%
same,Percent Growth,[15]; Log10 Concentration −5.0,−16%
same,Percent Growth,[15]; Log10 Concentration −6.0,101%
same,Percent Growth,[15]; Log10 Concentration −7.0,105%
same,Percent Growth,[15]; Log10 Concentration −8.0,104%
same,GI50,"[16]; Homo sapiens, SN12C",2.35 µM
same,CC50,"[16]; Homo sapiens, SN12C, read-out: LC50",> 100 µM
same,Percent Growth,[16]; Log10 Concentration −4.0,−35%
same,Percent Growth,[16]; Log10 Concentration −5.0,−7%
same,Percent Growth,[16]; Log10 Concentration −6.0,83%
same,Percent Growth,[16]; Log10 Concentration −7.0,103%
same,Percent Growth,[16]; Log10 Concentration −8.0,91%
same,TGI,[16]; SN12C,8.42E−6
same,GI50,"[17]; Homo sapiens, OVCAR-5",2.18 µM
same,CC50,"[17]; Homo sapiens, OVCAR-5, read-out: LC50",9.06 µM
same,Percent Growth,[17]; Log10 Concentration −4.0,−58%
same,Percent Growth,[17]; Log10 Concentration −5.0,−57%
same,Percent Growth,[17]; Log10 Concentration −6.0,105%
same,Percent Growth,[17]; Log10 Concentration −7.0,94%
same,Percent Growth,[17]; Log10 Concentration −8.0,99%
same,TGI,[17]; OVCAR-5,4.44E−6
same,TGI,[18]; ACHN,3.33E−6
same,GI50,"[18]; Homo sapiens, ACHN",1.71 µM
same,Percent Growth,[18]; Log10 Concentration −4.0,−39%
same,Percent Growth,[18]; Log10 Concentration −5.0,−82%
same,Percent Growth,[18]; Log10 Concentration −6.0,90%
same,Percent Growth,[18]; Log10 Concentration −7.0,114%
same,Percent Growth,[18]; Log10 Concentration −8.0,107%
same,TGI,[19]; HCC-2998,4.20E−6
same,GI50,"[19]; Homo sapiens, HCC 2998",2.12 µM
same,CC50,"[19]; Homo sapiens, HCC 2998, read-out: LC50",8.32 µM
same,Percent Growth,[19]; Log10 Concentration −4.0,−70%
same,Percent Growth,[19]; Log10 Concentration −5.0,−63%
same,Percent Growth,[19]; Log10 Concentration −6.0,105%
same,Percent Growth,[19]; Log10 Concentration −7.0,103%
same,Percent Growth,[19]; Log10 Concentration −8.0,109%
same,TGI,[6],9.84E−6
same,Percent Growth,[6]; Log10 Concentration −4.0,−27%
same,Percent Growth,[6]; Log10 Concentration −5.0,−1%
same,Percent Growth,[6]; Log10 Concentration −6.0,94%
same,Percent Growth,[6]; Log10 Concentration −7.0,88%
same,Percent Growth,[6]; Log10 Concentration −8.0,95%
same,GI50,"[20]; Homo sapiens, MDA-MB-435",1.91 µM
same,CC50,"[20]; Homo sapiens, MDA-MB-435, read-out: LC50",87.8 µM
same,Percent Growth,[20]; Log10 Concentration −4.0,−51%
same,Percent Growth,[20]; Log10 Concentration −5.0,−32%
same,Percent Growth,[20]; Log10 Concentration −6.0,82%
same,Percent Growth,[20]; Log10 Concentration −7.0,102%
same,Percent Growth,[20]; Log10 Concentration −8.0,100%
same,TGI,[20]; MDA-MB-435,5.23E−6
